Test results: ChEMBL document CHEMBL1201862, “PubChem BioAssay data set” (2004)
Active and inactive are the calls of the source.

What was measured:
[1] = intracellular Trypanosoma cruzi inhibitors in host cells – cell-based, plate reader, cherry-pick samples, set 3, dose response (AID 651818); assay type: functional;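 note: compounds incubated with infected cells for about four days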
[2] = target: T1, Carboxy-terminal domain RNA polymerase II polypeptide A small phosphatase 1 (Homo sapiens, UniProt Q9GZU7); test: inhibitors of CTDSP1, concentration-response testing, biochemical assay, absorbance-based, actives from ultra-high-throughput screening (AID 540297); assay type: functional
T1 sequence (Q9GZU7 whole entry): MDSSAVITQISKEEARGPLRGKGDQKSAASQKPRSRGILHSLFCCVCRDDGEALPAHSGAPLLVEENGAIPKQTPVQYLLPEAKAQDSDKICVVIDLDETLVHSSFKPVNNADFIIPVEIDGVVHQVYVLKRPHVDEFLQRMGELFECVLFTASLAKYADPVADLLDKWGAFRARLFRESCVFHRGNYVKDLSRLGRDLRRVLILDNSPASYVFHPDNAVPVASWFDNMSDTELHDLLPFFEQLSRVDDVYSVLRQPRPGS

[3] = growth suppression of PTEN-null colon cells, dose response, cell-based, HCT116 PTEN knockout (AID 1047); assay type: functional;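 note: HCT116 colon tumor cells with PTEN knocked out; cells exposed to compound for 60 hours before readout; potency for loss of cell viability measured by luminescence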
[4] = C. albicans growth with fluconazole, confirmation, fluorescence, retest (AID 2467); assay type: functional, cell-based
[5] = NIH-3T3 fibroblast cytotoxicity, dose response, cytotoxicity control, cell-based, fluorescence, Alamar Blue, secondary assay (AID 2327); assay type: functional;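 note: NIH-3T3 mouse fibroblasts cultured with fluconazole at 8 µg/mL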
[6] = growth suppression of beta-catenin-knockout colon cells, dose response, cell-based, HCT116, human colon tumor (AID 1045); assay type: functional;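 note: HCT116 colon tumor cells with beta catenin knocked out; cells exposed to compound for 60 hours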
[7] = target: Paired box protein Pax-8 (Homo sapiens, UniProt Q06710); test: inhibitors of PAX8-driven TPO luciferase reporter, dose response, RMG-I cells, cherry-pick (AID 687027); assay type: functional, cell-based;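 note: luciferase reporter driven by Pax8 target thyroperoxidase promoter measured by SteadyGlo luminescence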
Chain of Paired box protein Pax-8 (Q06710 whole entry): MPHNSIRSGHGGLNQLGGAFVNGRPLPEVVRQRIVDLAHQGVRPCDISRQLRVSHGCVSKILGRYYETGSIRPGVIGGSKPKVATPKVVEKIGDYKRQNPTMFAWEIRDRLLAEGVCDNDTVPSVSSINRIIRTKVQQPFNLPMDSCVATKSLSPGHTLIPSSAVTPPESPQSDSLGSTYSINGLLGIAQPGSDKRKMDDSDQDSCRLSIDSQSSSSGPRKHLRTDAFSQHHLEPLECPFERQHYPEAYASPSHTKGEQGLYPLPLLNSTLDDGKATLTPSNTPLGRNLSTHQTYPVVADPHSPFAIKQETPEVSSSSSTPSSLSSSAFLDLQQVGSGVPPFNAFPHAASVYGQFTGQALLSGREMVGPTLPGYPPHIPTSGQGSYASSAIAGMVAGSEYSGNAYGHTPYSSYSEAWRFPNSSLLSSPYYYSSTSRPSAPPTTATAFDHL

[8] = target: T2, Polyadenylate-binding protein 1 (Homo sapiens, UniProt P11940); test: PABP1 MLLE–PAM2 binding inhibitor potency, dose response, biochemical, fluorescence polarization, FITC-PAM2 peptide (AID 602259); assay type: functional; details: read-out: IC50_Mean
T2 sequence (P11940 whole entry): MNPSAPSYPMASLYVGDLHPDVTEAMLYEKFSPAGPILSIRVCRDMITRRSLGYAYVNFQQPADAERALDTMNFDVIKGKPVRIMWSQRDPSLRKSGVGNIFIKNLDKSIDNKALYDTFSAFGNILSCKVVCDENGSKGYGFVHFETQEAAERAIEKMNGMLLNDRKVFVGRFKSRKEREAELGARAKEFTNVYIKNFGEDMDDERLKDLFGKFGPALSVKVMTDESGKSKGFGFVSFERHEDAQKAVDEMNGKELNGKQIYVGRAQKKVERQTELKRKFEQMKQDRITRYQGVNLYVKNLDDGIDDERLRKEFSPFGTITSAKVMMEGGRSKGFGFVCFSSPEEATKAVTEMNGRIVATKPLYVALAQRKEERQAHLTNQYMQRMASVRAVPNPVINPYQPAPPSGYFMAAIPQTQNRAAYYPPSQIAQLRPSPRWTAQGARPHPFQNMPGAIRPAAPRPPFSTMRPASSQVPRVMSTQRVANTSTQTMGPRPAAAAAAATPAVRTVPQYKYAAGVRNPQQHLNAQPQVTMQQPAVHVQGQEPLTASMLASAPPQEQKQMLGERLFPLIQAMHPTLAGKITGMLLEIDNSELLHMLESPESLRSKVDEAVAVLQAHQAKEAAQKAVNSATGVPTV

[9] = target: T2, Polyadenylate-binding protein 1; test: PABP1 MLLE–PAM2 interaction inhibitors, dose response, miRNA deadenylation inhibitor project, biochemical, fluorescence polarization, Cy5-PAM2 peptide, secondary (AID 602260); assay type: functional; details: read-out: IC50_Mean
[10] = target: T3, RNA-binding protein pos-1 (Caenorhabditis elegans, UniProt G5EF15); test: inhibitors of POS-1/mex-3 RNA binding, dose response, biochemical, fluorescence polarization (AID 1964);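 note: purified POS-1 fused to maltose binding protein made in E. coli; potency of compounds blocking POS-1 binding to fluorescent RNA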
T3 sequence (G5EF15 whole entry): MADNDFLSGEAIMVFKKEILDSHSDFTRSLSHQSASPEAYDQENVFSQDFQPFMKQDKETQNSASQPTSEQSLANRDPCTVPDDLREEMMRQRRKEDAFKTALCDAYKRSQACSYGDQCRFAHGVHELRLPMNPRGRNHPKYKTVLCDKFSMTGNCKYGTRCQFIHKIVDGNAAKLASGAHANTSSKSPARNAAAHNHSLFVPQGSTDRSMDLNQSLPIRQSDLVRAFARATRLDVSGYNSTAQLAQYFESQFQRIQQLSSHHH

[11] = target: Large T antigen (Simian virus 40, UniProt P03070); assay type: functional, Betapolyomavirus macacae;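 note: Confirmatory-stage PubChem screen for compounds that inhibit SV40 T antigen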
Chain of Large T antigen (P03070 whole entry): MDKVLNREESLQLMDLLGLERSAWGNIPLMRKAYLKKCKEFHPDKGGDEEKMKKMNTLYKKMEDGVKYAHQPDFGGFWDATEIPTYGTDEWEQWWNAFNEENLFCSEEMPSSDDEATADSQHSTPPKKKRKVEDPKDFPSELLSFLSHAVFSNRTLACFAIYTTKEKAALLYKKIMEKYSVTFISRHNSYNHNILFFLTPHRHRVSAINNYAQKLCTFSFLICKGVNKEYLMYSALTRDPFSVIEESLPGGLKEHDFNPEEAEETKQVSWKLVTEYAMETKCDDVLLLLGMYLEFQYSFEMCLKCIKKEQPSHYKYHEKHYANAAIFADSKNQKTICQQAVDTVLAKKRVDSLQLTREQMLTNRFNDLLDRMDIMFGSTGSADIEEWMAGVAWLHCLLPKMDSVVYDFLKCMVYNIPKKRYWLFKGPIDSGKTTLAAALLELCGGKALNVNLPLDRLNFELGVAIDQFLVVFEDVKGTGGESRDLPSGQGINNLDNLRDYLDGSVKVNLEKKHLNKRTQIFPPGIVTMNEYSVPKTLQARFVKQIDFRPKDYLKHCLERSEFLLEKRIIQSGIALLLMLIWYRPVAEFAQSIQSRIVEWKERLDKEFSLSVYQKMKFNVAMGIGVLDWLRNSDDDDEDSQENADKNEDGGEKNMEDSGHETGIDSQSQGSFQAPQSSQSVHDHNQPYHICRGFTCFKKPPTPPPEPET

[12] = target: T4, Zinc finger protein mex-5 (Caenorhabditis elegans, UniProt Q9XUB2); test: MEX-5/TCR-2 RNA interaction inhibitors, dose response, biochemical, C. elegans, fluorescence polarization (AID 1960)
T4 sequence (Q9XUB2 whole entry): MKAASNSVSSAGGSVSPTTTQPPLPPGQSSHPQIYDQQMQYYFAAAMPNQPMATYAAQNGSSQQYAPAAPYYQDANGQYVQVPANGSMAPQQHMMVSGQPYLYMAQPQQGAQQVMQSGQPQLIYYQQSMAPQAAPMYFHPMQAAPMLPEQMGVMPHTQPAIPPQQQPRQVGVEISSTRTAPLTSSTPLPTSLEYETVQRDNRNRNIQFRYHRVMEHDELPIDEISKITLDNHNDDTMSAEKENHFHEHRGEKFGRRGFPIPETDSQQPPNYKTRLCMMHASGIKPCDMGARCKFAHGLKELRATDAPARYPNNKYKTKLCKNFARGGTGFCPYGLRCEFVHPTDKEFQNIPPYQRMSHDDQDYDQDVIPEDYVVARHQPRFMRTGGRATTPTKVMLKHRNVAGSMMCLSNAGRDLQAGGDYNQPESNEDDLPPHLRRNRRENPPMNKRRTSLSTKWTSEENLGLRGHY

[13] = target: Luciferin 4-monooxygenase (Photinus pyralis, UniProt P08659); test: firefly luciferase enzyme inhibitors, dose response, biochemical, luminescence (AID 1891)
Chain of Luciferin 4-monooxygenase (P08659 whole entry): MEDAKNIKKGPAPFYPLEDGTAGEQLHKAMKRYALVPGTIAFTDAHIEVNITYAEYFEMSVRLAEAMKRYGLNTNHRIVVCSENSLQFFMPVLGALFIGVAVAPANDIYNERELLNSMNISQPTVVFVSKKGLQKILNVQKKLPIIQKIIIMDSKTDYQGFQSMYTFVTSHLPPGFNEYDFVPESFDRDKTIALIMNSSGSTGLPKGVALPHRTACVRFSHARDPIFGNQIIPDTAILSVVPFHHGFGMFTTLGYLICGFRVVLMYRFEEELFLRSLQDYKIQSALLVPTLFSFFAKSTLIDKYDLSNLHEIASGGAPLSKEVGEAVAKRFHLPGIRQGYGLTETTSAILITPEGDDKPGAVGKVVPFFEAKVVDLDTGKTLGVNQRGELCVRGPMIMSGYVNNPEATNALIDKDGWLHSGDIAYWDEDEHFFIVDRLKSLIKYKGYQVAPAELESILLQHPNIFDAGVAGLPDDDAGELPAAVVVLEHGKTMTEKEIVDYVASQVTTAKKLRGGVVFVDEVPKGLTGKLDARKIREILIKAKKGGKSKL

[14] = Luminescence Cell-Based Dose Confirmation HTS to Identify Inhibitors of Platelet Dense Granule Release. [Related pubchem assays: 1663 (Primary HTS), 1678 (Summary of Project)]; assay type: functional
[15] = target: T5, Replicative DNA helicase DnaB (Mycobacterium tuberculosis, UniProt P9WMR3); test: DnaB intein splicing inhibitors, dose response, biochemical, cell-free fluorescence (AID 449749); assay type: functional
T5 sequence (P9WMR3 whole entry): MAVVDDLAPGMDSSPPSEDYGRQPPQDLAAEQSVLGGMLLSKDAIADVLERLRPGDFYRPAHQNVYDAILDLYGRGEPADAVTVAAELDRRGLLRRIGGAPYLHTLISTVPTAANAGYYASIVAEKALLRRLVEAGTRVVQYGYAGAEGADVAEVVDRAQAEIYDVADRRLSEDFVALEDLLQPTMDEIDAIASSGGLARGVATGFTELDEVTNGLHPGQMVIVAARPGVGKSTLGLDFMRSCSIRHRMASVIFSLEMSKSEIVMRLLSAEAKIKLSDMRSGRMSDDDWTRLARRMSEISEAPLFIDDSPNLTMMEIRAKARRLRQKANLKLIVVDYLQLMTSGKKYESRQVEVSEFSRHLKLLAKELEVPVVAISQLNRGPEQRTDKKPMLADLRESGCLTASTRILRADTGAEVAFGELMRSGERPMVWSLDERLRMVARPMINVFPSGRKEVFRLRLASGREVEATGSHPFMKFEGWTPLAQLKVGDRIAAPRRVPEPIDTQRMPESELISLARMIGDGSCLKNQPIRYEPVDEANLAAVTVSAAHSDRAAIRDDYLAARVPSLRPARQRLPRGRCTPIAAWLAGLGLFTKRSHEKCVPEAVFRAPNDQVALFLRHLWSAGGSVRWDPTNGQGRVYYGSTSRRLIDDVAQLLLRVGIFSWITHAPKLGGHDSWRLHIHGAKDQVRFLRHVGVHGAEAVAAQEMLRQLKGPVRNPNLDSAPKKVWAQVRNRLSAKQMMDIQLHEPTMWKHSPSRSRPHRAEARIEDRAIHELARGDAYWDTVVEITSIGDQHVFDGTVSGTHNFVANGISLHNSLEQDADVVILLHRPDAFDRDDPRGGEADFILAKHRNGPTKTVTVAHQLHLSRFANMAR

[16] = target: T6, Protein RecA (Mycobacterium tuberculosis, UniProt P9WHJ3); test: Fluorescence Cell-Free Homogeneous Dose Retest to Identify Inhibitors of RecA-Intein Splicing Activity. [Related pubchem assays (depositor defined):AID2097, AID2223, AID489010, AID492950]; assay type: functional
T6 sequence (P9WHJ3 whole entry): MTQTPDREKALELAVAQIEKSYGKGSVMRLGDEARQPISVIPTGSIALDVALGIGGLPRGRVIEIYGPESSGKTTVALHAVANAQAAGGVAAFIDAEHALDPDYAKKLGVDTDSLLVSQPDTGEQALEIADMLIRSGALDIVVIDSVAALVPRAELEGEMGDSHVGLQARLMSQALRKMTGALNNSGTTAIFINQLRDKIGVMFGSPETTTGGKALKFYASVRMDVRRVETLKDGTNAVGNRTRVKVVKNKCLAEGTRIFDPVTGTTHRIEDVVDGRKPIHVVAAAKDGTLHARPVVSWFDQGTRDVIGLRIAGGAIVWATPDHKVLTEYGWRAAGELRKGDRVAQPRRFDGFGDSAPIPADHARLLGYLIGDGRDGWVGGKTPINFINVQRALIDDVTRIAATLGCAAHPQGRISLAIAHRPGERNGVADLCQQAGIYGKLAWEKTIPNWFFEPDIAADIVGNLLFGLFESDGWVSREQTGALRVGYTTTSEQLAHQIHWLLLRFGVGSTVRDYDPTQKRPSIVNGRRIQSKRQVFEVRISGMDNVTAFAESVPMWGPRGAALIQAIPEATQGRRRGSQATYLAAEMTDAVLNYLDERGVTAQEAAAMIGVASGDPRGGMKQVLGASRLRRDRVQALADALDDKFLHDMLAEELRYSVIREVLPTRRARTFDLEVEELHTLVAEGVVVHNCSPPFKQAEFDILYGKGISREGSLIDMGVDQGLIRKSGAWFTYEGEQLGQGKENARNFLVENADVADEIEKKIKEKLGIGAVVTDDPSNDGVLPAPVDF

In the case of `C[C@H](CO)N1C[C@H](C)[C@@H](CN(C)Cc2ccc(Oc3ccccc3)cc2)Oc2ccc(N(C)C)cc2C1=O`, the AC50 [1] is reported as 2.27 µM (active).
For `Cc1cccc(C(=O)OCC(=O)c2ccc(CC(=O)N3CCOCC3)s2)c1C`, the IC50 [2] was 6.46 µM (active).
In the case of `C[C@H](CO)N1C[C@H](C)[C@H](CN(C)Cc2ccc(C(=O)Nc3ccccc3N)cc2)Oc2ccc(NS(=O)(=O)c3ccc(F)cc3)cc2CC1=O`, the AC50 [1] is reported as 2.64 µM (active).
In the case of `O=C(Cc1nnc(NC(=O)c2ccccc2)s1)N/N=C/c1ccc(O)cc1`, the IC50 [2] is reported as 8.5 µM (active).
With `Oc1[nH]c2c(Cl)cc(Cl)cc2c1N=NC(S)=NCC1CCCO1` (centres undefined) the EC50 [3] was 1.67 µM (active), the EC50 [4] was 3.03 µM (active) and the EC50 [5] was 19.8 µM (inconclusive). The EC50 [6] was 1.22 µM (active).
For `COc1ccc(NC(=O)Nc2ccc3c(c2)CC(=O)N([C@H](C)CO)C[C@@H](C)[C@@H](CN(C)Cc2ccc(Oc4ccccc4)cc2)O3)cc1`, the AC50 [1] was 2.09 µM (active) and the AC50 [7] was 23.5 µM (active).
With `COc1cccc(C(=O)Oc2ccccc2/C=C\C(=O)c2cc3ccccc3o2)c1` the EC50 [3] was 7.8 µM (active) and the EC50 [6] was 6.66 µM (active).
With `Cc1ccc(SC2CC(=O)N(c3ccc4c(c3)OCCO4)C2=O)cc1` (centres undefined) the IC50 [8] was > 66 µM (inactive) and the IC50 [9] was > 66 µM (inactive).
For `COc1ccc(S(=O)(=O)Nc2ccc3c(c2)C(=O)N([C@H](C)CO)C[C@H](C)[C@H](CN(C)Cc2ccc(C(F)(F)F)cc2)OCCCC[C@@H](C)O3)cc1`, the AC50 [1] was 3.2 µM (active).
In the case of `C=CCNC(=O)COC(=O)c1c2c(nc3ccccc13)CCC2`, the IC50 [2] is reported as 7.39 µM (active).
With `Oc1[nH]c(S)nc2nc(S)nc1-2` the EC50 [10] was 32 µM (active), the IC50 [11] was 27.2 µM (active) and the EC50 [12] was 8.3 µM (active).
In the case of `O=[N+]([O-])c1ccc(-c2nc(=S)c3c(o2)CCCC3)cc1`, the IC50 [8] is reported as > 66 µM (inactive) and the IC50 [9] is reported as > 66 µM (inactive).
In the case of `C[C@@H]1CCCCO[C@H](CN(C)Cc2ccc(C(F)(F)F)cc2)[C@@H](C)CN([C@H](C)CO)C(=O)c2cc(NC(=O)Nc3ccc(C(F)(F)F)cc3)ccc2O1`, the AC50 [1] is reported as 3.15 µM (active).
For `CC(=O)C(Sc1nccc(-c2cccs2)n1)C(C)=O`, the IC50 [8] was > 66 µM (inactive) and the IC50 [9] was > 66 µM (inactive).
With `Cc1ccc(NC(=O)CC2SC(=O)N(c3ccccc3)C2=O)cc1` (centres undefined) the IC50 [8] was > 66 µM (inactive), the EC50 [13] was > 112 µM (not active) and the IC50 [9] was > 66 µM (inactive). The EC50 [14] was 109 µM (active).
With `CC(=O)Oc1cc2c(C(=O)NCCCN3CCOCC3)c(C)oc2c2ccccc12` the EC50 [3] was 3.79 µM (active) and the EC50 [6] was 4.45 µM (active).
For `C[C@@H]1CN([C@H](C)CO)C(=O)Cc2cc(NC(=O)NC3CCCCC3)ccc2O[C@H]1CN(C)Cc1ccc(C(=O)Nc2ccccc2N)cc1`, the AC50 [1] was 5.26 µM (active).
With `O=C(CSc1oc(-c2ccc(F)cc2)nc1S(=O)(=O)c1ccc(F)cc1)NCC1CCCO1` (centres undefined) the EC50 [3] was 10.2 µM (active) and the EC50 [6] was 13.6 µM (active).
In the case of `Cc1cc2cc(CNC(=O)c3cccs3)ccc2n1C`, the IC50 [8] is reported as > 66 µM (inactive) and the IC50 [9] is reported as > 66 µM (inactive).
With `C[C@@H]1CN([C@@H](C)CO)C(=O)c2cccc(NC(=O)Nc3ccc(C(F)(F)F)cc3)c2O[C@@H]1CN(C)S(=O)(=O)c1ccc(Cl)cc1` the AC50 [1] was 2.79 µM (active).
For `C[C@H]1CN([C@@H](C)CO)C(=O)c2cccc(NC(=O)CCCCCC(=O)Nc3ccccc3N)c2O[C@@H]1CN(C)CC1CCCCC1`, the AC50 [1] was 1.95 µM (active).
With `Cc1ccc(S(=O)(=O)N(C)C[C@H]2Oc3ccc(NC(=O)Nc4cccc5ccccc45)cc3CC(=O)N([C@@H](C)CO)C[C@H]2C)cc1` the AC50 [1] was 4.81 µM (active).
For `O=C(COC(=O)/C=C/c1ccco1)Nc1ncc(Cl)cc1Cl`, the IC50 [2] was 17 µM (active).
For `CCOc1nc(-c2ccc(OC)cc2)ccc1-c1noc(-c2cc(OC)c(OC)c(OC)c2)n1`, the EC50 [3] was 21.1 µM (active) and the EC50 [6] was 25.5 µM (active).
With `C[n+]1cnc(-c2ccccc2)cc1-c1ccccc1` the IC50 [2] was 3.35 µM (active).
For `C[C@@H]1CN([C@@H](C)CO)C(=O)c2cccc(NC(=O)c3ccncc3)c2O[C@@H]1CN(C)Cc1ccc(Cl)c(Cl)c1`, the AC50 [1] was 1.31 µM (active).
For `CCN(CC)C(=O)CSc1nnc2nnc3cc(Cl)ccc3n12`, the AC50 [15] was > 380 µM (inactive), the EC50 [16] was 0.499 µM (active) and the EC50 [10] was 23.2 µM (active). For the same compound, the IC50 [8] was 34.4 µM (inactive), the EC50 [12] was 18.5 µM (active) and the IC50 [9] was > 66 µM (inactive).
